Experimental data taken from the supplement of paper PMC5908809.

Assays:
KHYG-1 (IL-2 2.5 ng/mL) [1] = test: percent inhibition of viability; higher = more inhibition; conditions: 72 h
[2] = tested on: normal primary NK cells, pool 2 (3 donors) (IL-2 2.5 ng/mL); test: as above; conditions: 72 h
DERL-7 (IL-2 2.5 ng/mL) [3] = test: as above; conditions: 72 h
NKL (IL-2 2.5 ng/mL) [4] = test: as above; conditions: 72 h
KAI3 (IL-2 2.5 ng/mL) [5] = test: as above; conditions: 72 h
NK-92 (IL-2 2.5 ng/mL) [6] = test: as above; conditions: 72 h
YT (IL-2 2.5 ng/mL) [7] = test: as above; conditions: 72 h
[8] = tested on: normal primary NK cells, pool 3 (3 donors) (IL-2 2.5 ng/mL); test: as above; conditions: 72 h
SNK-6 (IL-2 2.5 ng/mL) [9] = test: as above; conditions: 72 h
[10] = tested on: normal primary NK cells, pool 1 (3 donors), resting (IL-2 0 ng/mL); test: as above; conditions: 72 h
IMC-1 (IL-2 20 ng/mL) [11] = test: as above; conditions: 72 h
NK-YS (IL-2 2.5 ng/mL) [12] = test: as above; conditions: 72 h
[13] = tested on: normal primary NK cells, pool 1 (3 donors) (IL-2 2.5 ng/mL); test: as above; conditions: 72 h
[14] = tested on: normal NK cells expanded with K562-aAPC; test: drug sensitivity score (DSS) (DSS units); higher = more sensitive; extreme values may be limits of the assay; conditions: 72 h; IL-2 2.5 ng/mL
Procedure: (§1)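 Drug sensitivity and resistance testing on K562-aAPC-expanded normal NK cells: 5 concentrations (10-fold steps over a 10,000-fold range), 72 h at 37 °C, viability by CellTiter-Glo normalised to DMSO and benzethonium chloride controls; DSS from the fitted curve.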

KHYG-1 (IL-2 2.5 ng/mL) [15] = test: as above; conditions: 72 h
[16] = tested on: normal primary NK cells, pool 2 (3 donors) (IL-2 2.5 ng/mL); test: as above; conditions: 72 h
DERL-7 (IL-2 2.5 ng/mL) [17] = test: as above; conditions: 72 h
NKL (IL-2 2.5 ng/mL) [18] = test: as above; conditions: 72 h
KAI3 (IL-2 2.5 ng/mL) [19] = test: as above; conditions: 72 h
NK-92 (IL-2 2.5 ng/mL) [20] = test: as above; conditions: 72 h
YT (IL-2 2.5 ng/mL) [21] = test: as above; conditions: 72 h
[22] = tested on: normal primary NK cells, pool 3 (3 donors) (IL-2 2.5 ng/mL); test: as above; conditions: 72 h
SNK-6 (IL-2 2.5 ng/mL) [23] = test: as above; conditions: 72 h
[24] = tested on: normal primary NK cells, pool 1 (3 donors), resting (IL-2 0 ng/mL); test: as above; conditions: 72 h
IMC-1 (IL-2 20 ng/mL) [25] = test: as above; conditions: 72 h
NK-YS (IL-2 2.5 ng/mL) [26] = test: as above; conditions: 72 h
[27] = tested on: normal primary NK cells, pool 1 (3 donors) (IL-2 2.5 ng/mL); test: as above; conditions: 72 h
[28] = tested on: normal NK cells expanded with K562-aAPC; test: percent inhibition of viability; higher = more inhibition; conditions: 72 h, IL-2 2.5 ng/mL
Procedure: as §1

OC[C@H]1O[C@@H](n2cnc3c2N=CNC[C@H]3O)C[C@@H]1O [Pentostatin] (max concentration tested 10000 nM)
percent inhibition of viability [%]
Conditions	1 nM	10 nM	100 nM	1000 nM	10000 nM
DERL-7 (IL-2 2.5 ng/mL) [3]	-9.03	2.32	-10.5	-5.23	-4.31
IMC-1 (IL-2 20 ng/mL) [11]	0.7	-6.1	1.22	0.79	10.6
KAI3 (IL-2 2.5 ng/mL) [5]	-10.6	-16.4	-2.67	-7.59	-0.36
KHYG-1 (IL-2 2.5 ng/mL) [1]	-3.74	-3.32	0.86	5.07	5.26
NK-92 (IL-2 2.5 ng/mL) [6]	-4	-10.1	-2.52	-6.44	6.47
NK-YS (IL-2 2.5 ng/mL) [12]	-2.76	-5.13	-3.05	6.9	9.33
NKL (IL-2 2.5 ng/mL) [4]	-20.9	-21.1	-17.4	-6.93	-7.04
SNK-6 (IL-2 2.5 ng/mL) [9]	4.13	3.89	8.33	34	20.9
YT (IL-2 2.5 ng/mL) [7]	-4.24	-0.68	3.36	4.3	8.72
[2]	-9.21	-12.2	-5.88	-13.3	1.05
[8]	-11.3	-12.5	-7.39	-4.5	11.5
[10]	-7.98	1.6	-13.1	-28.3	-7.61
[13]	-3.11	3.31	-8.32	-5.87	1.1
[28]	0.75	-2.98	3.38	6.95	8.99

Conditions	drug sensitivity score
DERL-7 (IL-2 2.5 ng/mL) [17]	0
IMC-1 (IL-2 20 ng/mL) [25]	0
KAI3 (IL-2 2.5 ng/mL) [19]	0
KHYG-1 (IL-2 2.5 ng/mL) [15]	0
NK-92 (IL-2 2.5 ng/mL) [20]	0
NK-YS (IL-2 2.5 ng/mL) [26]	0
NKL (IL-2 2.5 ng/mL) [18]	0
SNK-6 (IL-2 2.5 ng/mL) [23]	7.04
YT (IL-2 2.5 ng/mL) [21]	0
[14]	0
[16]	0
[22]	0
[24]	0
[27]	0

CCN(CC)C(=S)SSC(=S)N(CC)CC [Disulfiram] (max concentration tested 100000 nM)
percent inhibition of viability [%]
Conditions	10 nM	100 nM	1000 nM	10000 nM	100000 nM
DERL-7 (IL-2 2.5 ng/mL) [3]	4.4	22.1	97.2	58.3	100
IMC-1 (IL-2 20 ng/mL) [11]	-0.36	2.91	74.2	44.6	101
KAI3 (IL-2 2.5 ng/mL) [5]	0.03	-5.96	23.3	29.1	99.8
KHYG-1 (IL-2 2.5 ng/mL) [1]	1.86	2.15	64.2	44.3	101
NK-92 (IL-2 2.5 ng/mL) [6]	-0.19	-7.5	39.9	1.99	98.8
NK-YS (IL-2 2.5 ng/mL) [12]	1.28	2.15	66.6	59.1	94.4
NKL (IL-2 2.5 ng/mL) [4]	2.6	19.2	89.2	93.1	103
SNK-6 (IL-2 2.5 ng/mL) [9]	0.42	-19.7	11.4	-24.5	100
YT (IL-2 2.5 ng/mL) [7]	3.15	1.21	7.05	7.11	96.6
[2]	-8.13	11.6	98.6	98.2	101
[8]	-15.5	1.36	98.2	99.1	101
[10]	-2.82	3.62	97.2	97.5	101
[13]	3.67	-0.96	99.8	99.5	101
[28]	-4.71	1.75	94.6	74	100

Conditions	drug sensitivity score
DERL-7 (IL-2 2.5 ng/mL) [17]	32.9
IMC-1 (IL-2 20 ng/mL) [25]	20
KAI3 (IL-2 2.5 ng/mL) [19]	8.84
KHYG-1 (IL-2 2.5 ng/mL) [15]	18.2
NK-92 (IL-2 2.5 ng/mL) [20]	5.78
NK-YS (IL-2 2.5 ng/mL) [26]	21.3
NKL (IL-2 2.5 ng/mL) [18]	31.1
SNK-6 (IL-2 2.5 ng/mL) [23]	4.39
YT (IL-2 2.5 ng/mL) [21]	6.46
[14]	29.9
[16]	32.3
[22]	30.4
[24]	30.6
[27]	30.3
